The text below walks through data of patent publication US20240217966A1, “PHARMACEUTICAL COMPOSITION CONTAINING GLP-1 RECEPTOR AGONIST HAVING FUSED RING” (Shionogi & Co., Ltd., priority 2021, published 2024).

In the assay the target is T1, Human GLP-1 receptor (Homo sapiens, UniProt P43220).
T1 construct: expressed in transfected cells
The assay can be described thus: Measurement of GLP-1 receptor agonist activity (cAMP assay). In kind it is cell-based. The note with it: for Emax: CHO-K1, hGLP-1R/CHO-K1 cells, read-out: Emax(%); for EC50: cAMP increase, 37° C. 1 hour. The method, then:
Test Example 1: (Measurement of GLP-1 Receptor Agonist Activity)
Human GLP-1 receptor stably expressing cells (hGLP-1R/CHO-K1 cells) are cultured in an α-MEM medium (Sigma) containing 10% FBS (Hyclone), 2% GlutaMAX (Gibco), 1% G418 (Nacalai Tesque), and 1% Penicillin-Streptomycin Mixed Solution (Sigma) at 37° C. under 5% CO2 conditions, and recovered by treating a 10 fold diluted 5.0 g/l-trypsin/5.3 mmol/l-EDTA solution (Nacalai Tesque) and cryopreserved.
A DMSO solution containing the compound of the present invention or human GLP-1 (7-36) (Phoenix Pharmaceuticals) is dispensed into a 384-well microplate (Greiner) at 62.5 nL/well, and in addition, 400 μM Forskolin (Nacalai Tesque) is dispensed therein at 7.5 nL/well. Subsequently, the frozen GLP-1 R/CHO-K1 cells are thawed in a thermostatic bath at 37° C., suspended in HBSS buffer (GIBCO) containing 0.1% BSA (Sigma), 20 mM HEPES (GIBCO), 0.1 mM IBMX (Sigma), and 0.2 mM RO20-1724 (Calbiochem) at 2×10^4 cells/mL, and the cell suspension is added at 6 μL/well. The solution was incubated at 37° C. for 1 hour and intracellular cAMP concentration is measured using cAMP Gs dynamic kit (Cisbio) according to the protocol attached to the product. Specifically, cAMP-d2 and Anti-cAMP-Cryptate are each added in an amount of 3 μL/well, the mixture is incubated at room temperature for 1 hour, and time-resolved fluorescence is measured using PHERAstar (BMG Labtech).
The dilution concentration or the dilution solvent are changed as necessary.
The compounds of the present invention were tested essentially as described above.
A general note: Cyclic AMP is a second messenger, typically raised through Gs and lowered through Gi signalling.

Where [1] appears, read: cAMP, 100% = human GLP-1 (7-36) at 2 nM, 0% = DMSO only.

T1 sequence (P43220 24-463): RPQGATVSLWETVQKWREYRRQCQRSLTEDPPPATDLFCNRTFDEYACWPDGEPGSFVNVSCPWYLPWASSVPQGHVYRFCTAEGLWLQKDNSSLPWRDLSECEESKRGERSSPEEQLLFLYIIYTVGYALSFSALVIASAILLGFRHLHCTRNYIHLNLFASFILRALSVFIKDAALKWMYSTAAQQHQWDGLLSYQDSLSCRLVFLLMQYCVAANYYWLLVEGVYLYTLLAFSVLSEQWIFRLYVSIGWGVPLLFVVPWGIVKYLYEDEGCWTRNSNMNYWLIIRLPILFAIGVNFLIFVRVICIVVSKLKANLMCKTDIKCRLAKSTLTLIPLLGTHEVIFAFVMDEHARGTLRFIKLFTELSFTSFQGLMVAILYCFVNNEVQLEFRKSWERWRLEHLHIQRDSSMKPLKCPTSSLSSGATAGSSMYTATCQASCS

On to `COc1ccc(COc2cc3c(cc2C(F)(F)F)CCN(Cc2nc4ccc(C(=O)O)cc4n2C[C@@H]2CCO2)C3)cc1` [Compound I-104], for which the maximal response (Emax) (in general, the maximal effect, on the per cent scale that the assay sets) under setting [1] turned out to be 102%. Also, the midpoint of the response (hGLP-1R/CHO-K1 cells), the EC50, lay at 4.78 nM.
Taken in the same sequence, the figures for `O=C(O)c1ccc2nc(CN3CCc4cc(C(F)(F)F)c(OCc5ccc(F)cc5F)cc4C3)n(C[C@@H]3CCO3)c2c1` [Compound I-106] were 101% and 6.88 nM.
As to `O=C(O)c1ccc2nc(CN3CCc4cc(C(F)(F)F)c(OCc5c(F)cc(F)cc5F)cc4C3)n(C[C@@H]3CCO3)c2c1` [Compound I-107], under setting [1], the maximum response (Emax) came to 101%. The midpoint of the response (hGLP-1R/CHO-K1 cells), the EC50, lay at 3.5 nM.
Taken in the same sequence, the figures for `Cc1cc(C(=O)O)cc2c1nc(CN1CCc3cc(C(F)(F)F)c(OCc4ccc(Cl)cc4F)cc3C1)n2C[C@@H]1CCO1` [Compound I-108] were 108% and 8.33 nM.
Regarding `O=C(O)c1ccc2nc(CN3CCc4cc(C(F)(F)F)c(OCc5ccc(Cl)cc5F)nc4C3)n(C[C@@H]3CCO3)c2c1` [Compound I-110], the Emax under setting [1] worked out at 114%.
Regarding `C[C@H]1c2cc(OCc3ccc(C#N)cc3)c(C(F)(F)F)cc2CCN1Cc1nc2ccc(C(=O)O)cc2n1C[C@@H]1CCO1` [Compound I-111], the Emax under setting [1] was found to be 126%. Under “hGLP-1R/CHO-K1 cells”, the EC50 – broadly, the concentration at which the effect is half-maximal – is 2.51 nM.
Taken in the same sequence, the figures for `C[C@H]1c2cc(OCc3ccc(C#N)cc3)c(C(F)(F)F)cc2CCN1Cc1nc2c(F)cc(C(=O)O)cc2n1C[C@@H]1CCO1` [Compound I-112] were 114% and 1.1 nM.
Taken in the same sequence, the figures for `C[C@H]1c2cc(OCc3ccc(C#N)cc3)c(C(F)(F)F)cc2CCN1Cc1nc2ccc(C(=O)O)c(F)c2n1C[C@@H]1CCO1` [Compound I-113] were 124% and 1.46 nM.
For `C[C@H]1c2cc(OCc3c(F)cc(Cl)cc3F)c(C(F)(F)F)cc2CCN1Cc1nc2ccc(C(=O)O)cc2n1C[C@@H]1CCO1` [Compound I-114], under setting [1], the Emax was 132%. Where the note is “hGLP-1R/CHO-K1 cells”, this compound registered an EC50 of 0.604 nM.
For the compound `C[C@H]1c2cc(OCc3c(F)cc(Cl)cc3F)c(C(F)(F)F)cc2CCN1Cc1nc2ccc(C(=O)O)nc2n1C[C@@H]1CCO1` [Compound I-115], under setting [1], the Emax amounted to 124%. Besides, the EC50 (hGLP-1R/CHO-K1 cells) worked out at 0.538 nM.
In the same order, the values of `C[C@H]1c2cc(OCc3ccc(Cl)cc3Cl)c(C(F)(F)F)cc2CCN1Cc1nc2ccc(C(=O)O)nc2n1C[C@@H]1CCO1` [Compound I-118] are 113% and 0.658 nM.
In the same order, the values of `COc1cc(C(=O)O)cc2c1nc(CN1CCc3cc(C(F)(F)F)c(OCc4ccc(Cl)cc4F)cc3C1)n2C[C@@H]1CCO1` [Compound I-119] are 119% and 0.569 nM.
`O=C(O)c1cc(OC(F)F)c2nc(CN3CCc4cc(C(F)(F)F)c(OCc5ccc(Cl)cc5F)cc4C3)n(C[C@@H]3CCO3)c2c1` [Compound I-120]: under setting [1], the Emax turned out to be 103%. Moreover, the EC50 (hGLP-1R/CHO-K1 cells) was 2.43 nM.
In the same order, the values of `C[C@H]1c2cc(OCc3ccc(F)cc3)c(C(F)(F)F)cc2CCN1Cc1nc2c(F)cc(C(=O)O)cc2n1C[C@@H]1CCO1` [Compound I-121] are 119% and 1.21 nM.
In the same order, the values of `C[C@H]1c2cc(OCc3ccc(F)cc3)c(C(F)(F)F)cc2CCN1Cc1nc2ccc(C(=O)O)c(F)c2n1C[C@@H]1CCO1` [Compound I-122] are 97% and 1.22 nM.
Taken in the same sequence, the figures for `C[C@H]1c2cc(OCc3c(F)cc(F)cc3F)c(C(F)(F)F)cc2CCN1Cc1nc2ccc(C(=O)O)cc2n1C[C@@H]1CCO1` [Compound I-124] were 102% and 1.71 nM.
As to `C[C@H]1c2cc(OCc3c(F)cc(F)cc3F)c(C(F)(F)F)cc2CCN1Cc1nc2ccc(C(=O)O)c(F)c2n1C[C@@H]1CCO1` [Compound I-126], the maximum response (Emax) under setting [1] is 99.7%. Further, where the note is “hGLP-1R/CHO-K1 cells, cAMP, 100% = human GLP-1 (7-36) at 2 nM, 0% = DMSO only”, the “Emax(%)” value was determined as 98.7%.
With `O=C(O)c1ccc2nc(Cc3cc(F)c4nc(C(F)(F)F)c(OCc5ccc(Cl)cc5F)nc4c3)n(C[C@@H]3CCO3)c2c1` [Compound I-127], the Emax under setting [1] came to 111%. For the same compound, the response (hGLP-1R/CHO-K1 cells) was half-maximal at 1.15 nM (EC50).
Taken in the same sequence, the figures for `O=C(O)c1ccc2nc(Cc3cc4nc(OCc5ccc(Cl)cc5F)c(C(F)(F)F)nc4cc3F)n(C[C@@H]3CCO3)c2c1` [Compound I-128] were 81.3% and 40.3 nM.
Taken in the same sequence, the figures for `C[C@H]1c2cc(OCc3c(F)cc(Cl)cc3F)c(C(F)(F)F)cc2CCN1Cc1nc2c(F)cc(C(=O)O)cc2n1C[C@@H]1CCO1` [Compound I-129] were 122% and 0.329 nM.
Regarding `C[C@H]1c2cc(OCc3c(F)cc(Cl)cc3F)c(C(F)(F)F)cc2CCN1Cc1nc2ccc(C(=O)O)c(F)c2n1C[C@@H]1CCO1` [Compound I-130], the Emax under setting [1] came out at 139%. Also, for the setting “hGLP-1R/CHO-K1 cells”, the EC50 worked out at 0.307 nM.
In the same order, the values of `Cc1c(Cc2nc3ccc(C(=O)O)cc3n2C[C@@H]2CCO2)ccc2nc(C(F)(F)F)c(OCc3ccc(Cl)cc3F)nc12` [Compound I-132] are 105% and 0.881 nM.
As for `O=C(O)c1cc(F)c2nc(CN3CCc4cc(C(F)(F)F)c(OCc5ccc(Cl)cc5F)cc4C3)n(C[C@@H]3CCO3)c2c1F` [Compound I-134], the Emax under setting [1] was 119%. The same compound returned a concentration giving a half-maximal response (EC50) (hGLP-1R/CHO-K1 cells) of 1.18 nM.
Taken in the same sequence, the figures for `O=C(O)c1ccc2nc(CN3CCc4cc(C(F)(F)F)c(OCc5ccc(C(F)(F)F)cn5)cc4C3)n(C[C@@H]3CCO3)c2c1` [Compound I-135] were 91% and 27.6 nM.
In the same order, the values of `Cc1ccc(COc2cc3c(cc2C(F)(F)F)CCN(Cc2nc4ccc(C(=O)O)cc4n2C[C@@H]2CCO2)C3)nc1` [Compound I-136] are 107% and 5.73 nM.
Taken in the same sequence, the figures for `Cc1csc(COc2cc3c(cc2C(F)(F)F)CCN(Cc2nc4ccc(C(=O)O)cc4n2C[C@@H]2CCO2)C3)n1` [Compound I-137] were 114% and 5.56 nM.
`Cc1nc(COc2cc3c(cc2C(F)(F)F)CCN(Cc2nc4ccc(C(=O)O)cc4n2C[C@@H]2CCO2)C3)cs1` [Compound I-138]: the maximum response (Emax) under setting [1] stood at 94.3%. Besides, under “hGLP-1R/CHO-K1 cells”, the concentration giving a half-maximal response (EC50) was determined as 68.8 nM.
`COc1cc(Cl)ccc1COc1cc2c(cc1C(F)(F)F)CCN(Cc1nc3ccc(C(=O)O)cc3n1C[C@@H]1CCO1)C2` [Compound I-139]: under setting [1], the Emax was found to be 117%. Also, the concentration giving a half-maximal response (EC50) (hGLP-1R/CHO-K1 cells) worked out at 1.23 nM.
In the same order, the values of `Cc1cc(Cl)ccc1COc1cc2c(cc1C(F)(F)F)CCN(Cc1nc3ccc(C(=O)O)cc3n1C[C@@H]1CCO1)C2` [Compound I-140] are 96% and 18 nM.
Taken in the same sequence, the figures for `O=C(O)c1ccc2nc(CN3CCc4cc(C(F)(F)F)c(OCc5ccc(OC(F)F)c(F)c5)cc4C3)n(C[C@@H]3CCO3)c2c1` [Compound I-143] were 101% and 25.3 nM.
In the case of `O=C(O)c1cc(C(F)F)c2nc(CN3CCc4cc(C(F)(F)F)c(OCc5ccc(Cl)cc5F)cc4C3)n(C[C@@H]3CCO3)c2c1` [Compound I-146], the Emax under setting [1] came out at 102%. The same compound registered an EC50 (hGLP-1R/CHO-K1 cells) of 40.3 nM.
In the same order, the values of `Cc1cn(C)nc1COc1cc2c(cc1C(F)(F)F)CCN(Cc1nc3ccc(C(=O)O)cc3n1C[C@@H]1CCO1)C2` [Compound I-147] are 88% and 99.3 nM.
Consider `CCn1ccc(COc2cc3c(cc2C(F)(F)F)CCN(Cc2nc4ccc(C(=O)O)cc4n2C[C@@H]2CCO2)C3)n1` [Compound I-148], for which the Emax under setting [1] was found to be 95%. The compound further displayed an EC50 (hGLP-1R/CHO-K1 cells) of 32.5 nM.
Take `CC(C)n1ccc(COc2cc3c(cc2C(F)(F)F)CCN(Cc2nc4ccc(C(=O)O)cc4n2C[C@@H]2CCO2)C3)n1` [Compound I-149]: the Emax under setting [1] amounted to 93.7%. Under “hGLP-1R/CHO-K1 cells”, this compound yielded an EC50 of 101 nM.
Taken in the same sequence, the figures for `O=C(O)c1ccc2nc(CN3CCc4cc(C(F)(F)F)c(OCc5ccn(C(F)F)n5)cc4C3)n(C[C@@H]3CCO3)c2c1` [Compound I-150] were 92% and 18.3 nM.
In the same order, the values of `O=C(O)c1ccc2nc(CN3CCc4cc(C(F)(F)F)c(OCc5ccn(CC(F)(F)F)n5)cc4C3)n(C[C@@H]3CCO3)c2c1` [Compound I-151] are 93.7% and 124 nM.
Regarding `O=C(O)c1ccc2nc(CN3CCc4cc(C(F)(F)F)c(OCc5ccccc5OC(F)F)cc4C3)n(C[C@@H]3CCO3)c2c1` [Compound I-152], under setting [1], the Emax is 111%. The response (hGLP-1R/CHO-K1 cells) was half-maximal at 5.88 nM (EC50).
Taken in the same sequence, the figures for `COc1cc(F)c(COc2cc3c(cc2C(F)(F)F)CCN(Cc2nc4ccc(C(=O)O)cc4n2C[C@@H]2CCO2)C3)c(F)c1` [Compound I-153] were 104% and 5.34 nM.
Taken in the same sequence, the figures for `O=C(O)c1ccc2nc(CN3CCc4cc(C(F)(F)F)c(OCc5ccccc5F)cc4C3)n(C[C@@H]3CCO3)c2c1` [Compound I-154] were 97.7% and 38.4 nM.
In the same order, the values of `O=C(O)c1ccc2nc(CN3CCc4cc(C(F)(F)F)c(OCc5c(F)cccc5F)cc4C3)n(C[C@@H]3CCO3)c2c1` [Compound I-155] are 93.7% and 25.9 nM.
